Measured values taken from article PMC7767178 (International Journal of Molecular Sciences, 2020).
In brackets after ≈: the same amount, converted by molar mass. Where two headings read alike, the source gives them in different places. Positions of bridges follow the written chain, without caps; N, C: chain ends. Residues, ends and D or L forms follow the SMILES beside them.

Experiments:
[1] = system: A. veronii ACCC61732; details: 3 h, MIC against A. veronii ACCC61732; for MIC after physiological salt 50 mM: NaCl 50 mM; for MIC after physiological salt 100 mM: NaCl 100 mM
Description: Similarly, salt stability of peptides was determined after a 3 h-incubation in different NaCl solutions (50, 100, 200, 300, 400, and 500 mM). […] The activity of peptides against A. veronii ACCC61732 was determined as described above. The untreated peptides were used as the positive control and buffers alone were used as the negative control. All assays were conducted in triplicate.

[2] = system: A. veronii ACCC61732; assay: SEM morphology; assay type: cell-based; details: 4× MIC, 2 h
Description: MDR A. veronii ACCC61732 cells were cultured in MHB at 37 °C (250 rpm) until the mid-log phase of growth, harvested by centrifugation, and diluted with 0.01 M PBS (pH 7.4) to 0.5–5 × 10^8 CFU/mL. […] For SEM, the samples were harvested (5000× g, 5 min) and fixed with 2.5% glutaraldehyde at 4 °C overnight. The cells were dehydrated for 10 min in a graded ethanol series (50%, 70%, 90%, and 100%) and transferred to a mixture of 100% ethanol, tertiary butanol, and absolute tertiary butanol (v:v = 1:1) for 15 min. Finally, the specimens were dehydrated in a critical point dryer with liquid CO2, coated with gold–palladium, and observed using a QUANTA200 (FEI, Philips, Amsterdam, Netherlands).

[3] = system: pepsin; details: pH 2
[4] = system: A. veronii ACCC61732; assay: ATP release, BacTiter-Glo; assay type: cell-based; details: 8×, 16× and 32× MIC, 60 min, 37 °C, luminescence, n = 3
Description: The assay was performed for three biological replicates at 37 °C, with luminescence recorded using a Tecan Infinite M1000 Pro plate reader. The fold reduction of ATP was calculated as: Fold reduction ATP = 1 − (Ltreat − Lmedia/Lcontrol − Lmedia), where Ltreat is the luminescence of treated cells, Lmedia is the luminescence of MHB without cells, and Lcontrol is the luminescence of untreated cells. Resultant graphs show mean (n = 3) and SEM for each data point, prepared in Prism 7 [46].

[5] = system: A. veronii ACCC61732; assay type: physicochemical; details: MIC against A. veronii ACCC61732; for MIC after treatment at 4 °C: 1 h at 4 °C; for MIC after treatment at 20 °C: 1 h at 20 °C; for MIC after treatment at 40 °C: 1 h at 40 °C; for MIC after treatment at 60 °C: 1 h at 60 °C; for MIC after treatment at 80 °C: 1 h at 80 °C
Description: The thermal stability of peptides was determined after treatment for 1 h at different temperatures (4, 20, 40, 60, 80, and 100 °C). The relative antibacterial activity of peptides against A. veronii ACCC61732 was determined by the MIC assay.

[6] = system: RAW 264.7 cells; assay: Cytotoxicity, MTT; assay type: cell-based; details: 24 h
Description: To determine the cytotoxicity of peptides, RAW 264.7 cells (2.5 × 10^4 cells/well) were seeded into 96-well plates and incubated for 24 h. […] The cells were dyed with 3-(4,5-dimethyl-2-thiazolyl)-2,5-diphenyl-2-H-tetrazolium bromide (MTT) (5 mg/mL) for 4 h, incubated with dimethyl sulfoxide (DMSO), and measured at 570 nm. PBS was used as controls. The cell survival rate was calculated by the equation: Survival rate (%) = (Abspeptide/AbsPBS) × 100 [25].

[7] = 60 min, 200 μg/mL peptide, 37 °C, inhibition zone against A. veronii ACCC61732
Description: Briefly, a final concentration of 200 μg/mL peptide was incubated in SGF and SIF at 37 °C. At different time intervals, an aliquot of 20 μL mixture was taken and the activity of peptides was tested against A. veronii ACCC61732 by the inhibition zone assay. […] in PBS was used as the positive control; SGF and SIF were used as negative controls.

[8] = system: A. veronii ATCC35624; assay type: cell-based
[9] = system: A. veronii ACCC61732; assay: pH stability, MIC read-out; assay type: physicochemical; details: MIC against A. veronii ACCC61732; for MIC after treatment at pH 10: glycine-NaOH buffer pH 10.0, 3 h; for MIC after treatment at pH 6: sodium phosphate buffer pH 6.0, 3 h; for MIC after treatment at pH 8: tris-HCl buffer pH 8.0, 3 h
Description: To evaluate pH stability, peptides were dissolved in glycine-HCl buffer (pH 2.0), sodium acetate buffer (pH 4.0), sodium phosphate buffer (pH 6.0), tris-HCl buffer (pH 8.0), or glycine-NaOH buffer (pH 10.0) and treated for 3 h. The MIC values of peptides against A. veronii ACCC61732 were measured as described above.

[10] = system: A. veronii; assay: MIC, range over strains; assay type: cell-based; details: range over the strains of Table 2
Excerpt: (§1) All experiments were repeated three times.

[11] = system: Escherichia coli; assay: MIC, range over strains; assay type: cell-based; details: range over the strains of Table 2
Excerpt: as §1

[12] = system: Pseudomonas aeruginosa and Gram-positive bacteria such as Staphylococcus aureus and S. hyicus; assay: MIC, range over strains; assay type: cell-based; details: range over the strains of Table 2
Excerpt: as §1

[13] = 37 °C
[14] = system: Salmonella; details: range over the strains of Table 2
[15] = biological target: proteinase K (Parengyodontium album, UniProt P06873); details: proteinase K 40 mAU/mg, pH 7.0, peptide:enzyme 10:1 (w/w); MIC against A. veronii ACCC61732; triplicate
proteinase K, sequence (P06873 106-384): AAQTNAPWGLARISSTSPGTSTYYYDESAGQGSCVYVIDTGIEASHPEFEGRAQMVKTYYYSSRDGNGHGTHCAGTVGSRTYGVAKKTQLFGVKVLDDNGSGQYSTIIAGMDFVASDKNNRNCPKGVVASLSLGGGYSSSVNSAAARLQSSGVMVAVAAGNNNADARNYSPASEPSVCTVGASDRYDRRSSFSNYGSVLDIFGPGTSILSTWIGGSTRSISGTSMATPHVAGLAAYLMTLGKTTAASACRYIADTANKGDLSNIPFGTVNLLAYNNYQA

[16] = A. veronii ATCC35624, broth dilution, 37 °C, 16–18 h, three experiments

For `CC(C)[C@H]1NC(=O)CNC(=O)[C@@H](CC(N)=O)NC(=O)[C@@H](CCCNC(=N)N)NC(=O)[C@@H](Cc2ccc(O)cc2)NC(=O)[C@@H](C(C)C)NC(=O)[C@H](NC(=O)[C@H](NC(=O)[C@@H](CC(N)=O)NC(=O)[C@@H](Cc2c[nH]c3ccccc23)NC(=O)[C@@H](C)NC(=O)[C@@H](Cc2ccccc2)NC(=O)CN)C(C)C)CSSC[C@H](C(=O)N[C@H](Cc2c[nH]cn2)C(=O)N[C@H](CCCNC(=N)N)C(=O)N[C@H](CCCNC(=N)N)C(=O)N[C@H](C)C(=O)N[C@H](CC(N)=O)C(N)=O)NC(=O)[C@@H](C(C)C)NC(=O)[C@@H](CCCNC(=N)N)NC1=O` [DN6NH2], the “MIC after physiological salt 50 mM” value [1] was 4 μg/mL, the “MIC after physiological salt 100 mM” value [1] was 4 μg/mL and the “MIC after physiological salt 200 mM” value ([1]; NaCl 200 mM) was 4 μg/mL. For the same compound, the “MIC after physiological salt 300 mM” value ([1]; NaCl 300 mM) was 4 μg/mL, the “MIC after physiological salt 400 mM” value ([1]; NaCl 400 mM) was 4 μg/mL and the “MIC after physiological salt 500 mM” value ([1]; NaCl 500 mM) was 4 μg/mL. For the same compound, the “cells producing filamentous substances” value [2] was “over 50%”, the “MIC after pepsin treatment” value [3] was “retained the antibacterial activity” and the ATP release [4] was 84.34–86.15%. The “MIC after treatment at 4 °C” value [5] was 4 µg/mL (≈ 1.62 µM), the “MIC after treatment at 20 °C” value [5] was 4 µg/mL (≈ 1.62 µM) and the “MIC after treatment at 40 °C” value [5] was 4 µg/mL (≈ 1.62 µM). For the same compound, the “MIC after treatment at 60 °C” value [5] was 4 µg/mL (≈ 1.62 µM), the “MIC after treatment at 80 °C” value [5] was 4 µg/mL (≈ 1.62 µM) and the “cell survival rate at low concentrations” value [6] was “over 100%”. The “antibacterial activity after treatment in SGF” value [7] was “higher antibacterial activity than N6NH2 and other analogs”, the MIC [8, 16] was 64 µg/mL and the MIC ([8]; ATCC35624) was 25.86 µM. The “MIC after treatment at pH 10” value [9] was 4 μg/mL, the “MIC after treatment at pH 6” value [9] was 4 μg/mL and the “MIC after treatment at pH 8” value [9] was 4 μg/mL. For the same compound, the “MIC values against A. veronii” value [10] was 1.62 to 25.86 µM, the “MIC values against Escherichia coli” value [11] was 1.62 to 3.23 µM and the “MICs against Pseudomonas aeruginosa and Gram-positive bacteria such as S. aureus and S. hyicus” value [12] was 1.62 to 6.46 µM. The “activity retained in SIF” value ([13]; 200 μg/mL peptide, inhibition zone against A. veronii ACCC61732) was 100%, the “state after incubation in SIF” value ([13]; 1 h) was “remained intact” and the “MIC values against Salmonella” value [14] was 0.81 to 6.46 µM.
For `CC(C)[C@H](N)C(=O)N[C@@H](Cc1ccccc1)C(=O)N[C@@H](C)C(=O)N[C@@H](Cc1c[nH]c2ccccc12)C(=O)N[C@@H](CC(N)=O)C(=O)N[C@H](C(=O)N[C@H]1CSSC[C@@H](C(=O)N[C@@H](Cc2c[nH]cn2)C(=O)N[C@@H](CCCNC(=N)N)C(=O)N[C@@H](CCCNC(=N)N)C(=O)N[C@@H](C)C(=O)N[C@@H](CC(N)=O)C(N)=O)NC(=O)[C@H](C(C)C)NC(=O)[C@H](CCCNC(=N)N)NC(=O)[C@H](C(C)C)NC(=O)[C@H](C(C)C)NC(=O)[C@H](CC(N)=O)NC(=O)[C@H](CCCNC(=N)N)NC(=O)[C@H](Cc2ccc(O)cc2)NC(=O)[C@H](C(C)C)NC1=O)C(C)C` [V112N6NH2] (H-VFAWNVCVYRNVVRVCHRRAN-NH2; disulfide 7-16 (inferred)), the MIC [8, 16] was 16 µg/mL, the MIC ([8]; ATCC35624) was 6.25 µM and the “MIC values against A. veronii” value [10] was 6.25 to 12.51 µM. The “MIC values against Escherichia coli” value [11] was 1.56 to 3.13 µM and the “MIC values against Salmonella” value [14] was 0.78 to 6.25 µM.
For `CC(C)[C@@H]1NC(=O)CNC(=O)[C@H](CC(N)=O)NC(=O)[C@H](CCCNC(=N)N)NC(=O)[C@H](Cc2ccc(O)cc2)NC(=O)[C@H](C(C)C)NC(=O)[C@@H](NC(=O)[C@@H](NC(=O)[C@H](CC(N)=O)NC(=O)[C@H](Cc2c[nH]c3ccccc23)NC(=O)[C@H](C)NC(=O)[C@H](Cc2ccccc2)NC(=O)CN)C(C)C)CSSC[C@@H](C(=O)N[C@@H](Cc2cnc[nH]2)C(=O)N[C@@H](CCCNC(=N)N)C(=O)N[C@@H](CCCNC(=N)N)C(=O)N[C@@H](C)C(=O)N[C@@H](CC(N)=O)C(N)=O)NC(=O)[C@H](C(C)C)NC(=O)[C@H](CCCNC(=N)N)NC1=O` [N6NH2], the “MIC after physiological salt 50 mM” value [1] was 4 μg/mL, the “MIC after physiological salt 100 mM” value [1] was 4 μg/mL and the “MIC after proteinase K treatment” value [15] was over 128 µg/mL. For the same compound, the ATP release [4] was 56.07–90.00%, the “MIC after treatment at 4 °C” value [5] was 4 µg/mL (≈ 1.62 µM) and the “MIC after treatment at 20 °C” value [5] was 4 µg/mL (≈ 1.62 µM). For the same compound, the “MIC after treatment at 40 °C” value [5] was 4 µg/mL (≈ 1.62 µM), the “MIC after treatment at 60 °C” value [5] was 4 µg/mL (≈ 1.62 µM) and the “MIC after treatment at 80 °C” value [5] was 4 µg/mL (≈ 1.62 µM). For the same compound, the MIC [8, 16] was 8 µg/mL, the MIC ([8]; ATCC35624) was 3.23 µM and the “MIC after treatment at pH 2” value ([9]; glycine-HCl buffer pH 2.0, 3 h) was 4 μg/mL. The “MIC after treatment at pH 10” value [9] was 4 μg/mL, the “MIC after treatment at pH 4” value ([9]; sodium acetate buffer pH 4.0, 3 h) was 4 μg/mL and the “MIC after treatment at pH 6” value [9] was 4 μg/mL. For the same compound, the “MIC after treatment at pH 8” value [9] was 4 μg/mL.
For `CC(C)[C@@H]1NC(=O)CNC(=O)[C@H](CC(N)=O)NC(=O)[C@H](CCCNC(=N)N)NC(=O)[C@H](Cc2ccc(O)cc2)NC(=O)[C@H](C(C)C)NC(=O)[C@@H](NC(=O)[C@@H](NC(=O)[C@H](CC(N)=O)NC(=O)[C@H](Cc2c[nH]c3ccccc23)NC(=O)[C@H](C)NC(=O)[C@H](Cc2ccccc2)NC(=O)CN)C(C)C)CSSC[C@@H](C(=O)N[C@@H](Cc2c[nH]cn2)C(=O)N[C@@H](CCCNC(=N)N)C(=O)N2CCC[C@H]2C(=O)N[C@@H](C)C(=O)N[C@@H](CC(N)=O)C(N)=O)NC(=O)[C@H](C(C)C)NC(=O)[C@H](CCCNC(=N)N)NC1=O` [N6PNH2] (H-GFAWNVCVYRNGVRVCHRPAN-NH2; disulfide 7-16 (inferred)), the ATP release [4] was 77.39–90.34%, the MIC [8, 16] was 64 µg/mL and the MIC ([8]; ATCC35624) was 26.49 µM. For the same compound, the “MIC values against A. veronii” value [10] was 6.62 to 26.49 µM, the “MIC values against Escherichia coli” value [11] was 1.66 to 3.31 µM and the “MIC values against Salmonella” value [14] was 0.83 to 13.25 µM.
